Assay [1] relates to RPE-MBC cells. The experiment in a line: IC50 in RPE-MBC cells (Table 1). Type of assay: cell-based, human. As to the method:
Retinal pigment epithelial cells transformed by ectopic MYC and Bcl-2 expression (RPE-MBC cells) have been described previously (e.g., Goga et al., 2007, Nat. Med., 13 (7):820-827) and were cultured in DMEM supplemented with 5% fetal bovine serum in a humidified incubator that was maintained at 5% CO2. For screening for bioactive fractions, cells were cultured in 96-well plates, and exposed to crude extracts, partially purified fractions or pure compounds at the concentrations indicated in the figure legends. Exposure was for 24 or 48 hours before analysis of cells for either an arrest in mitosis using an inverted microscope or for a change in DNA content after 4′,6′-diamidino-2-phenylindole (DAPI) staining by fluorescence microscopy.
The RPE series were derived from human retinal pigment epithelium and then stably transfected with a hTERT expression construct for immortalization. The resulting cell line was then engineered to overexpress the MYC and BCL2 oncogenes, generating the RPE MBC cell line. This cell line mimics cancer cells that overexpress MYC and Bcl2, and readily forms viable polyploid cells when cytokinesis is prevented.
(§1) Cells were split, plated in appropriate culture media and allowed to adhere. After 18 hours, corynoline and acetylcorynoline were added to a cell line selected from below. At 72 h or 96 h, MTT was added and at 75 h or 99 h, the A570 nm was recorded. The concentration ranged from 0.02 μM to 40 μM.
(§2) The effect of the compounds chelidonine and protopine on cell division was assessed similarly to corynoline and acetylcorynoline above. As described in Example 6 above, as cells enter and become arrested in mitosis, they detach from the plate surface and appear as rounded cells with a smooth surface membrane. RPE-MBC cells (ectopically expressing oncogenes MYC and Bcl2) were treated with DMSO, chelidonine and protopine, and compared against controls Michael's ketone (MK) and taxol.

In assay [2] the test system is RPE-MBH cells. The experiment in a line: IC50 in RPE-MBH cells (Table 1). The class given is cell-based, human. As to the method:
as §1
(§3) The following RPE cell lines were used in these studies: RPE NEO, RPE MBH, RPE MBC, RPE MA, RPE MP, RPE MI, and RPE MYC Nick. This RPE series were derived from human retinal pigment epithelium and then stably transfected with an hTERT expression construct for immortalization. The resulting cell line was then engineered to overexpress the MYC oncogene (RPE-MYC) or a Neomycin selection marker gene (RPE-NEO). In RPE-MYC cells, a variety of other oncogenes such as Myr-AKT, BCL2, ID1 and PI3K^E45k were further introduced individually to generate the cell lines RPE MA, RPE MBC, RPE MI, RPE MP, respectively. As a control, H2BGFP was introduced into RPE-MYC cells to generate RPE MBH.
as §2

Assay [3] relates to RPE-A19 cells. Kind of assay: IC50 in RPE-A19 cells (Table 2). The class given is cell-based, human. As to the method: as §1, §2
The test system of assay [4] is RPE-Neo cells. Kind of assay: IC50 in RPE-Neo cells (Table 2). Type of assay: cell-based, human. As to the method: as §1, §3, §2
Assay [5] concerns IMR 90 cells. The experiment in a line: IC50 in IMR 90 cells (Table 2). Type of assay: cell-based. Conditions: Homo sapiens, IMR-90, 72 h. As to the method:
as §1, §2

Assay [6] has as its system Rat1A cells. The experiment in a line: IC50 in Rat1A cells (Table 2). The class given is cell-based. As to the method:
as §1
(§4) The following Rat1A cell lines were used in these studies: Rat1 A C, Rat1A MYC, Rat1A E2F1, and Rat1A E2F3. The cell line was then engineered as control (C), to overexpress the MYC oncogene (Rat1A-MYC), to overexpress the E2F1 oncogene (Rat1A-E2F1), or to overexpress the E2F3 oncogene (Rat1A-E2F3).
as §2

Assay [7] relates to 3T3 MEF cells. The experiment in a line: IC50 in 3T3 MEF cells (Table 2). Type of assay: cell-based. As to the method:
as §1, §2

The test system of assay [8] is RPE-MBC cells. The experiment in a line: Mitotic arrest (cell round-up, phospho-Histone H3) and polyploidy (DAPI) assay. The class given is cell-based, human. Conditions: for mitotic arrest: 24 hours after treatment; for polyploidy (DAPI staining): 48 hours after treatment; for persistence of the arrest of cells in mitosis: within 48-hour treatment. As to the method: For screening for bioactive fractions, cells were cultured in 96-well plates, and exposed to crude extracts, partially purified fractions or pure compounds at the concentrations indicated in the figure legends. Exposure was for 24 or 48 hours before analysis of cells for either an arrest in mitosis using an inverted microscope or for a change in DNA content after 4′,6′-diamidino-2-phenylindole (DAPI) staining by fluorescence microscopy.
(§5) Cells were cultured on coverslips in a 6-well plate, fixed with 4% paraformaldehyde and then permeabilized with 0.3% Triton X-100 in PBS. Primary antibody was detected with Texas-Red-conjugated secondary antibodies that were purchased from Jackson ImmunoResearch. After immunostaining, cells were mounted on microscope slides with 4′,6′-diamidino-2-phenylindole (DAPI)-containing Vectashield mounting solution (Vector Laboratories) for detection of fluorescence with an EVOS FL fluorescence microscope (ThermoFisher).
Cellular “round-up” was used as a surrogate marker for mitotic arrest and could easily be assayed using an inverted tissue culture microscope. […] Mitotic arrest was judged by cell round-up observed under an inverted tissue culture microscope 24 hours after exposing cells to the library.
As cells enter and become arrested in mitosis, they detach from the plate surface and appear as rounded cells with smooth surface membrane, distinct from detached cells that are undergoing programmed cell death. Simple visual screening method was used to assay thousands of extracts. […] To identify bioactive components that are able to interfere with mitosis, 3 kg of Corydalis longicalcarata rhizome were recollected and performed bioactivity-guided extraction, isolation, and purification. The air dried and powdered material was extracted with 70% ethanol assisted by exposure to ultrasonic waves.

Assay [9] concerns RPE MBC cells. Kind of assay: Spindle pole assembly by β-tubulin / Histone H3ser10P immunofluorescence. The class given is cell-based, human. As to the method: Microtubule assembly, specifically spindle pole assembly, was altered by treatment with acetylcorynoline. RPE MBC cells were treated with acetylcorynoline and Histone H3 Serine 10 Phosphorylation (Histone H3ser10p, shown in FIG. 4 and FIG. 5 in red), β-tubulin (green) and DNA (blue) was analyzed by immunofluorescence microscopy. Histone H3ser10P was used to determine the cells that were in early mitosis (e.g., prometaphase or metaphase). β-tubulin was used to examine microtubule localization and spindle assembly within the cells.
Similarly to corynoline and acetylcorynoline above, it was determined that microtubule assembly, specifically spindle pole assembly, was altered by treatment with chelidonine.

For assay [10], the system named is all tested cell lines (RPE, Rat1A and human cancer cell lines). Kind of assay: MTT assay, IC50 across all of the cell lines tested. Type of assay: cell-based. The conditions noted are these: for IC50: Homo sapiens.
The subject of assay [11] is RPE cell lines (RPE NEO, RPE MBH, RPE MBC, RPE MA, RPE MP, RPE MI, RPE MYC Nick). The experiment in a line: MTT assay, RPE cell lines expressing oncogenes. Type of assay: cell-based, human. Conditions: RPE cell lines compared with RPE NEO control (FIG. 11).
For assay [12], the system named is Rat1A cell lines (Rat1A C, Rat1A MYC, Rat1A E2F1, Rat1A E2F3). Kind of assay: MTT assay, Rat1A cell lines expressing oncogenes. Conditions: Rat1A cell lines compared to Rat1A C (FIG. 12). The class given is cell-based. As to the method:
as §1, §4

In assay [13] the test system is aurora-B kinase. Kind of assay: Phosphorylation of Histone 3 at Ser10 as surrogate of aurora-B kinase activity. The class given is cell-based. As to the method: as §5
The subject of assay [14] is all tested cell lines (RPE, Rat1A and human cancer cell lines). Conditions: positive control, read-out: known IC50 value; cited from earlier work.
Where [15] appears, read: RPE-MBH, treatment 72 h, read-out: IC50.
Setting [16] is: RPE-A19, treatment 72 h, read-out: IC50.
[17] abbreviates: 3T3 MEF, treatment 72 h, read-out: IC50.

Molecules are shown by their SMILES. Where “and” joins values, the source holds several entries; their conditions need not be identical. Identical values can stand only once. Entries after “also recorded” stand apart in the source; their conditions may differ. Like-named read-outs stand apart in the source and are kept apart here.

Turning to `CN1Cc2c(ccc3c2OCO3)[C@@H]2[C@H]1c1cc3c(cc1C[C@@H]2O)OCO3` [Chelidonine, 5bR,6S,7,12bS,13,14-hexahydro-13-methyl-[1,3]benzodioxolo[5,6-c]-1,3-dioxolo[4,5-i]phenanthridin-6-ol], the half-maximal inhibitory concentration (IC50) in assay [1] (Homo sapiens, 72 h) is greater than 40 µM; in [2] (Homo sapiens, 72 h), 2.32 µM; in [3] (Homo sapiens, 72 h), 1.85 µM; in assay [4] (Homo sapiens, 72 h), 1.11 µM; in assay [5] it was 2.43 µM; in assay [6] (72 h), 1.11 µM. The compound also returned an IC50 in assay [7] (Mus musculus, MEF, 72 h) of 1.52 µM. The mitotic arrest entry in [8] is “Nearly all cells entered and arrested in mitosis”. Further, the “polyploidy (DAPI staining)” value in assay [8] is given as “polyploidy was observed; also recorded: demonstrates polyploidy”. Further, the “persistence of the arrest of cells in mitosis” value (from here on “persistence”) in [8] was “transient”. In addition, the “spindle formation (β-tubulin staining)” value in assay [9] (24 hours of treatment) was “multipolar spindles were formed; also recorded: multipolar spindle formation in mitosis”. For the same compound, the “centrosomes (β-tubulin staining)” value in [9] (analyzed after 24 or 48 hours) is “centrosome amplification and centrosome declustering”.

In the case of `CN1Cc2c(ccc3c2OCO3)[C@@]2(C)[C@@H](O)Cc3cc4c(cc3[C@@H]12)OCO4` [Corynoline, (5bR)-5bα,13-Dimethyl-5bα,6,7,12bα,13,14-hexahydro[1,3]benzodioxolo[5,6-c]-1,3-dioxolo[4,5-i]phenanthridine-6β-ol], the IC50 in assay [10] was 1 to 31 µM; in [1] (Homo sapiens, 72 h), 8.87 µM; in [2] (Homo sapiens, 72 h), 15.1 µM; in [3] (Homo sapiens, 72 h) it was 10.6 µM; in [4] (Homo sapiens, 72 h), 7.06 µM; in assay [5], greater than 40 µM. The IC50 in assay [6] (72 h) was found to be 8.61 µM; in assay [7] (Mus musculus, MEF, 72 h), 12.2 µM. The “IC50 compared with the other compound” value in assay [10] (all different cell lines) is “lower than acetylcorynoline”. The “change of IC50 after overexpression of oncogenic factors” value in assay [11] is “all declined, with the exception of RPE MA”. For the same compound, the “change of IC50 after overexpression of oncogenes” value in assay [12] is “increased in the Rat1 A MYC cell line”. Besides, the mitotic arrest entry in [8] is “can arrest mitosis within 24 hours of treatment”; in assay [8] (listed as corynoline) it was “Nearly all cells entered and arrested in mitosis”. The “polyploidy (DAPI staining)” value in assay [8] is recorded as “induce polyploidy at 48 hours”; in assay [8] (listed as corynoline), “Polyploidy was observed; also recorded: demonstrates polyploidy”. Also, in [8] (FIG. 15), the “mitotic arrest and polyploidy, dependence on concentration” value is “concentration-dependent”. For the same compound, the “persistence” value in [8] was “transient”. The “phosphorylation of Histone 3 at Ser10” value in assay [13] was “not affected”.

In the case of `CN(C)c1ccc(C(=O)c2ccc(N(C)C)cc2)cc1` [MK, Michael's ketone, reference compound], the IC50 in assay [1] (RPE-MBC, treatment 72 h, read-out: IC50) stood at 0.207 µM; in assay [2] (setting [15]) it was 0.303 µM; in assay [3] (setting [16]), 0.087 µM; in [4] (RPE-Neo, treatment 72 h, read-out: IC50), 0.805 µM; in assay [6] (Rat1A, treatment 72 h, read-out: IC50), 1.65 µM; in assay [7] (setting [17]), 3.48 µM.

With `CC(=O)O[C@H]1C(=O)[C@@]2(C)[C@H]([C@H](OC(=O)c3ccccc3)[C@]3(O)C[C@H](OC(=O)[C@H](O)[C@@H](NC(=O)c4ccccc4)c4ccccc4)C(C)=C1C3(C)C)[C@]1(OC(C)=O)CO[C@@H]1C[C@@H]2O` [Taxol, paclitaxel], the concentration for half-maximal inhibition (IC50) in assay [10] (across all of the cell lines tested (FIG. 9), MTT at 72 h or 96 h, read-out: IC50) was less than 0.02 µM; in assay [1] (Homo sapiens, RPE-MBC, treatment 72 h, read-out: IC50), greater than 40 µM; in assay [2] (Homo sapiens, 72 h, RPE-MBH, treatment 72 h, read-out: IC50), 31.4 µM; in assay [2] (setting [15]) it was 22.1 µM and 22.7 µM; in [3] (Homo sapiens, 72 h, RPE-A19, treatment 72 h, read-out: IC50), 13.4 µM; in assay [3] (setting [16]), 15.7 µM and 13 µM. Besides, the IC50 in assay [5] (IMR 90, treatment 72 h, read-out: IC50) was 6.98 µM; in [7] (setting [17]), 0.062 µM and 0.096 µM; in assay [7] (Mus musculus, MEF, 72 h, 3T3 MEF, treatment 72 h, read-out: IC50), 0.075 µM; in assay [14], less than 0.02 µM. Moreover, the “polyploidy (DAPI staining)” value in assay [8] was “without causing accumulation of polyploid cells”. In addition, the “persistence” value in [8] is on record as “persistent arrest of cells in mitosis”.

Regarding `CN1CCc2cc3c(cc2C(=O)Cc2ccc4c(c2C1)OCO4)OCO3` [protopine, 7-Methyl-6,8,9,16-tetrahydrobis[1,3]benzodioxolo[4,5-c:5′,6′-g]azecin-15(7H)-one], in [8], the mitotic arrest entry was “Nearly all cells entered and arrested in mitosis”; the “polyploidy (DAPI staining)” value is “Polyploidy was observed”; the “persistence” value is listed as “transient”.

As to `CC[C@]1(O)C[C@@H]2CN(CCc3c([nH]c4ccccc34)[C@@](C(=O)OC)(c3cc4c(cc3OC)N(C)[C@H]3[C@@](O)(C(=O)OC)[C@H](OC(C)=O)[C@]5(CC)C=CCN6CC[C@]43[C@@H]65)C2)C1` [vinblastine, reference compound], in assay [8], the “polyploidy (DAPI staining)” value is recorded as “without causing accumulation of polyploid cells” and the “persistence” value is recorded as “persistent arrest of cells in mitosis”.

These data come from patent US20240139162A1, “Benzophenanthridine Alkaloids and Their Methods of Use” (Chengdu Anticancer Bioscience, LTD., priority 2019, published 2024).
